According to US12172990B2 (Constellation Pharmaceuticals, Inc., priority 2018, dated 2024):

Tests used:
[1] = target: human TREX2 (residues M44-A279) (Homo sapiens (Human), UniProt Q9BQ50); assay: TREX2 Biochemical Assay (fluorescence assay measuring degradation of dsDNA substrate); details: 2.5 nM TREX2, 60 nM dsDNA substrate, 25 minutes at room temperature
Description: Degradation of the dsDNA liberates free fluorophore to produce a fluorescent signal. Specifically, 7.5 μL of N-terminally His-Tev tagged human TREX2 (residues M44-A279, expressed in E. coli and purified in house) in reaction buffer (50 mM Tris (pH 7.4), 150 mM NaCl, 2 mM DTT, 0.1 mg/mL BSA, 0.01% (v/v) Tween-20 and 100 mM MgCl2) was added to a 384-well Black ProxiPlate Plus (Perkin Elmer) which already contained compound (150 nL) at varying concentrations as a 10 point dose-response in DMSO. To this was added 7.5 μL of dsDNA substrate (Strand A: 5′ TEX615/GCT AGG CAG 3′; Strand B: 5′ CTG CCT AGC/IAbRQSp (IDT)) in reaction buffer. Final concentrations were 2.5 nM TREX2, 60 nM dsDNA substrate in reaction buffer with 1.0% DMSO (v/v). After 25 minutes at room temperature, reactions were quenched by the addition of 5 μL of stop buffer (same as reaction buffer plus 200 mM EDTA). Final concentrations in the quenched reaction mixture were […] TREX2, 45 nM DNA and 50 mM EDTA in a volume of 20 μL. After a 5-minute incubation at room temperature, plates were read in a laser sourced Envision (Perkin-Elmer), measuring fluorescence at 615 nm following excitation w/570 nm light. IC50 values were calculated by comparing the measured fluorescence at 615 nm ratio relative to control wells pre-quenched w/stop buffer (100% inhibition) and no inhibitor (0% inhibition) controls as using non-linear least square four parameter fits and either Genedata or GraphPad Prism (GraphPad Software, Inc.).

full length human TREX1 = full length human TREX1 (Homo sapiens (Human), UniProt Q9NSU2); assay: TREX1 Biochemical Assay (fluorescence assay measuring degradation of dsDNA substrate); details: 150 pM TREX1, 60 nM dsDNA substrate, 25 minutes at room temperature
Description: Degradation of the dsDNA liberates free fluorophore to produce a fluorescent signal. Specifically, 7.5 μL of N-terminally His-Tev tagged full length human TREX1 (expressed in E. coli and purified in house) in reaction buffer (50 mM Tris (pH 7.4), 150 mM NaCl, 2 mM DTT, 0.1 mg/mL BSA, 0.01% (v/v) Tween-20 and 100 mM MgCl2 were added to a 384-well Black ProxiPlate Plus (Perkin Elmer) which already contained compound (150 nL) at varying concentrations as a 10 point dose-response in DMSO. To this was added 7.5 μL of dsDNA substrate (Strand A: 5′ TEX615/GCT AGG CAG 3′; Strand B: 5′ CTG CCT AGC/IAbRQSp (Integrated DNA Technologies)) in reaction buffer. Final concentrations were 150 pM TREX1, 60 nM dsDNA substrate in reaction buffer with 1.0% DMSO (v/v). After 25 minutes at room temperature, reactions were quenched by the addition of 5 μL of stop buffer (same as reaction buffer plus 200 mM EDTA). Final concentrations in the quenched reaction were 112.5 pM TREX1, 45 nM DNA and 50 mM EDTA in a volume of 20 μL. After a 5-minute incubation at room temperature, plates were read in a laser sourced Envision (Perkin-Elmer), measuring fluorescence at 615 nm following excitation w/570 nm light. IC50 values were calculated by comparing the measured fluorescence at 615 nm ratio relative to control wells pre-quenched w/stop buffer (100% inhibition) and no inhibitor (0% inhibition) controls as using non-linear least square four parameter fits and either Genedata or GraphPad Prism (GraphPad Software, Inc.).

human TREX2 (residues M44-A279), sequence (Q9BQ50 whole entry, the tested form may be a part): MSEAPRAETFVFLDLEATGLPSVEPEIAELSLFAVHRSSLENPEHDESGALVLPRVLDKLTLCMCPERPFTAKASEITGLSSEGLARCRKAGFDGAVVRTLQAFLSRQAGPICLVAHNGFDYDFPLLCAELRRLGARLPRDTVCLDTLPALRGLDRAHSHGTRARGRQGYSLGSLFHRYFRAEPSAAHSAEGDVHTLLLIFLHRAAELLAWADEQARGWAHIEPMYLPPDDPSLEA
full length human TREX1, sequence (Q9NSU2 whole entry): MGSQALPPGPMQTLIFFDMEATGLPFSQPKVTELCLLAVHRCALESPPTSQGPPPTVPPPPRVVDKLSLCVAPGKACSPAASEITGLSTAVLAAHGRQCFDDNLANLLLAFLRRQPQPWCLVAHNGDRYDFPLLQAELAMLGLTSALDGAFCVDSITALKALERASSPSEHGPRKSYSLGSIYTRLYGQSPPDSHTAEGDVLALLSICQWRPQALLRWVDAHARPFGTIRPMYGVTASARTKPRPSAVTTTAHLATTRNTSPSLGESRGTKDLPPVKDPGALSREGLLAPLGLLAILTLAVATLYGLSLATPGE

Structure (SMILES)	IC50 [1] [nM]	IC50 (full length human TREX1) [nM]
CC(C)(C)OC(=O)N1CCCC(c2nc(C(=O)Nc3cnoc3)c(O)c(=O)[nH]2)C1 (stereo not shown) [Example 16, tert-butyl 3-(5-hydroxy-4-(isoxazol-4-ylcarbamoyl)-6-oxo-1,6-dihydropyrimidin-2-yl)piperidine-1-carboxylate]	10000 to 100000	100 to 1000
Cn1c(CC2CCN(C(=O)OC(C)(C)C)CC2)nc(C(=O)Nc2cnoc2)c(O)c1=O [Example 17, tert-butyl 4-((5-hydroxy-4-(isoxazol-4-ylcarbamoyl)-1-methyl-6-oxo-1,6-dihydropyrimidin-2-yl)methyl)piperidine-1-carboxylate]	10000 to 100000	1000 to 10000
Cn1c(CC2CCCN(C(=O)OC(C)(C)C)C2)nc(C(=O)Nc2cnoc2)c(O)c1=O (stereo not shown) [Example 18, tert-butyl 3-((5-hydroxy-4-(isoxazol-4-ylcarbamoyl)-1-methyl-6-oxo-1,6-dihydropyrimidin-2-yl)methyl)piperidine-1-carboxylate]	10000 to 100000	100 to 1000
Cn1c(C2CN(C(=O)OC(C)(C)C)C2)nc(C(=O)Nc2cnoc2)c(O)c1=O [Example 19, tert-butyl 3-(5-hydroxy-4-(isoxazol-4-ylcarbamoyl)-1-methyl-6-oxo-1,6-dihydropyrimidin-2-yl)azetidine-1-carboxylate]	> 100000	1000 to 10000
Cn1c(C2CCN2C(=O)OC(C)(C)C)nc(C(=O)Nc2cnoc2)c(O)c1=O (stereo not shown) [Example 22, tert-butyl 2-(5-hydroxy-4-(isoxazol-4-ylcarbamoyl)-1-methyl-6-oxo-1,6-dihydropyrimidin-2-yl)azetidine-1-carboxylate]	10000 to 100000	1000 to 10000
Cc1cc(C)cc(-c2nc(C(=O)Nc3cnoc3)c(O)c(=O)n2C)c1 [Example 25, 2-(3,5-dimethylphenyl)-5-hydroxy-N-(isoxazol-4-yl)-1-methyl-6-oxo-1,6-dihydropyrimidine-4-carboxamide]	1000 to 10000	100 to 1000
Cn1c(N2CCCCC2)nc(C(=O)Nc2cnoc2)c(O)c1=O [Example 28, 5-hydroxy-N-(isoxazol-4-yl)-1-methyl-6-oxo-2-(piperidin-1-yl)-1,6-dihydropyrimidine-4-carboxamide]	10000 to 100000	100 to 1000
Cc1cc(-c2nc(C(=O)Nc3cnoc3)c(O)c(=O)n2C)cc(N2CCOCC2)c1 [Example 31, 5-hydroxy-N-(isoxazol-4-yl)-1-methyl-2-(3-methyl-5-morpholinophenyl)-6-oxo-1,6-dihydropyrimidine-4-carboxamide]	1000 to 10000	100 to 1000
Cc1cc(Nc2cnn(C)c2)cc(-c2nc(C(=O)Nc3cnoc3)c(O)c(=O)n2C)c1 [Example 32, 5-hydroxy-N-(isoxazol-4-yl)-1-methyl-2-(3-methyl-5-((1-methyl-1H-pyrazol-4-yl)amino)phenyl)-6-oxo-1,6-dihydropyrimidine-4-carboxamide]	1000 to 10000	100 to 1000
Cc1cc(-c2nc(C(=O)Nc3cnoc3)c(O)c(=O)n2C)cc(N2CCN(C)CC2)c1 [Example 33, 5-hydroxy-N-(isoxazol-4-yl)-1-methyl-2-(3-methyl-5-(4-methylpiperazin-1-yl)phenyl)-6-oxo-1,6-dihydropyrimidine-4-carboxamide]	10000 to 100000	100 to 1000
Cc1cc(-c2ccn(C)n2)cc(-c2nc(C(=O)Nc3cnoc3)c(O)c(=O)n2C)c1 [Example 35, 5-hydroxy-N-(isoxazol-4-yl)-1-methyl-2-(3-methyl-5-(1-methyl-1H-pyrazol-3-yl)phenyl)-6-oxo-1,6-dihydropyrimidine-4-carboxamide]	1000 to 10000	100 to 1000
Cc1cc(C(=O)NC2CCOCC2)cc(-c2nc(C(=O)Nc3cnoc3)c(O)c(=O)n2C)c1 [Example 37, 5-hydroxy-N-(isoxazol-4-yl)-1-methyl-2-(3-methyl-5-((tetrahydro-2H-pyran-4-yl)carbamoyl)phenyl)-6-oxo-1,6-dihydropyrimidine-4-carboxamide]	10000 to 100000	100 to 1000

More lines, now with the values ahead:

IC50 [1] [nM]	IC50 (full length human TREX1) [nM]	Structure (SMILES)
< 1000	< 100	Cn1c(-c2cccc(Br)c2OCCO)nc(C(=O)Nc2cnoc2)c(O)c1=O [Example 15, 2-(3-bromo-2-(2-hydroxyethoxy)phenyl)-5-hydroxy-N-(isoxazol-4-yl)-1-methyl-6-oxo-1,6-dihydropyrimidine-4-carboxamide]
10000 to 100000	100 to 1000	Cn1c(C2(c3ccccc3)CC2)nc(C(=O)Nc2cnoc2)c(O)c1=O [Example 20, 5-hydroxy-N-(isoxazol-4-yl)-1-methyl-6-oxo-2-(1-phenylcyclopropyl)-1,6-dihydropyrimidine-4-carboxamide]
> 100000	1000 to 10000	Cn1c(-c2ccncc2)nc(C(=O)Nc2cnoc2)c(O)c1=O [Example 21, 5-hydroxy-N-(isoxazol-4-yl)-1-methyl-6-oxo-2-(pyridin-4-yl)-1,6-dihydropyrimidine-4-carboxamide]
1000 to 10000	100 to 1000	Cn1c(C(NC(=O)OCc2ccccc2)c2ccccc2)nc(C(=O)Nc2cnoc2)c(O)c1=O (stereo not shown) [Example 23, benzyl ((5-hydroxy-4-(isoxazol-4-ylcarbamoyl)-1-methyl-6-oxo-1,6-dihydropyrimidin-2-yl)(phenyl)methyl)carbamate]
> 100000	100 to 1000	Cn1c(C(NC(=O)OCc2ccccc2)c2ccc(Br)cc2)nc(C(=O)Nc2cnoc2)c(O)c1=O (stereo not shown) [Example 24, benzyl ((4-bromophenyl)(5-hydroxy-4-(isoxazol-4-ylcarbamoyl)-1-methyl-6-oxo-1,6-dihydropyrimidin-2-yl)methyl)carbamate]
10000 to 100000	1000 to 10000	Cn1c(Cc2ccccn2)nc(C(=O)Nc2cnoc2)c(O)c1=O [Example 26, 5-hydroxy-N-(isoxazol-4-yl)-1-methyl-6-oxo-2-(pyridin-2-ylmethyl)-1,6-dihydropyrimidine-4-carboxamide]
> 100000	> 10000	Cn1c(-c2ccccn2)nc(C(=O)Nc2cnoc2)c(O)c1=O [Example 27, 5-hydroxy-N-(isoxazol-4-yl)-1-methyl-6-oxo-2-(pyridin-2-yl)-1,6-dihydropyrimidine-4-carboxamide]
10000 to 100000	1000 to 10000	Cn1c(-c2cccnc2)nc(C(=O)Nc2cnoc2)c(O)c1=O [Example 29, 5-hydroxy-N-(isoxazol-4-yl)-1-methyl-6-oxo-2-(pyridin-3-yl)-1,6-dihydropyrimidine-4-carboxamide]
1000 to 10000	100 to 1000	Cn1c(-c2cc(Cl)cc(Cl)c2)nc(C(=O)Nc2cnoc2)c(O)c1=O [Example 30, 2-(3,5-dichlorophenyl)-5-hydroxy-N-(isoxazol-4-yl)-1-methyl-6-oxo-1,6-dihydropyrimidine-4-carboxamide]
1000 to 10000	100 to 1000	Cc1cc(Nc2cccc(C)n2)cc(-c2nc(C(=O)Nc3cnoc3)c(O)c(=O)n2C)c1 [Example 34, 5-hydroxy-N-(isoxazol-4-yl)-1-methyl-2-(3-methyl-5-((6-methylpyridin-2-yl)amino)phenyl)-6-oxo-1,6-dihydropyrimidine-4-carboxamide]
10000 to 100000	100 to 1000	Cc1cc(C(=O)N(C)C)cc(-c2nc(C(=O)Nc3cnoc3)c(O)c(=O)n2C)c1 [Example 36, 2-(3-(dimethylcarbamoyl)-5-methylphenyl)-5-hydroxy-N-(isoxazol-4-yl)-1-methyl-6-oxo-1,6-dihydropyrimidine-4-carboxamide]
